Assay [1] has as its system MOLT-4. Kind of assay: Cell viability assay (MTS) in MOLT-4 cells. Format: cell-based. The conditions noted are these: Homo sapiens, MOLT-4. The method, then:
(§1) Acute lymphoblastic leukemia cells (MOLT-4 and RS4; 11) were incubated with increasing concentrations of Bcl-xL degraders for 48 h. Cell viability was measured by tetrazolium-based MTS assay.

The test system of assay [2] is RS4; 11. Nature of the assay: Cell viability assay (MTS) in RS4; 11 cells. The class given is cell-based. The note with it: Homo sapiens, RS4-11. The method, then:
as §1

The mark [3] stands for this setting: Table 2, 48 hr, MTS, read-out: Anti-Cancer Activity IC50 (48 hr) MOLT-4.
[4] abbreviates: Table 2, 48 hr, MTS, read-out: Anti-Cancer Activity IC50 (48 hr) RS4, 11.
[5] abbreviates: Table 2A, 48 hr, MTS, read-out: Anti-Cancer Activity IC50 (48 hr) MOLT-4.
The mark [6] stands for this setting: Table 2A, 48 hr, MTS, read-out: Anti-Cancer Activity IC50 (48 hr) RS4, 11.

Read-outs that look alike come from different tables or passages of the source. Where only a bound is given, the exact number is not on record here.

In general, IC50 refers to the concentration needed to halve the response being measured. Consider `Cc1ncsc1-c1ccc([C@H](C)NC(=O)[C@@H]2C[C@@H](O)CN2C(=O)[C@@H](NC(=O)CCCCCCC(=O)N2CCN(CC3(C)CCC(c4ccc(Cl)cc4)=C(CN4CCN(c5ccc(C(=O)NS(=O)(=O)c6ccc(N[C@H](CCN7CCCCC7CO)CSc7ccccc7)c([N+](=O)[O-])c6)cc5)CC4)C3)CC2)C(C)(C)C)cc1` (stereo partly drawn) [Compound 45, (2S,4R)-1-((2S)-2-(8-(4-((4′-chloro-6-((4-(4-(((4-(((2R)-4-(2-(hydroxymethyl)piperidin-1-yl)-1-(phenylthio)butan-2-yl)amino)-3-nitrophenyl)sulfonyl)carbamoyl)phenyl)piperazin-1-yl)methyl)-4-methyl-2,3,4,5-tetrahydro-[1,1′-biphenyl]-4-yl)methyl)piperazin-1-yl)-8-oxooctanamido)-3,3-dimethylbutanoyl)-4-hydroxy-N—((S)-1-(4-(4-methylthiazol-5-yl)phenyl)ethyl)pyrrolidine-2-carboxamide], for which the IC50 lay within 100 to 500 nM in assay [1] (setting [3]) and 20 to 100 nM in assay [2] (setting [4]).

Consider `Cc1ncsc1-c1ccc([C@H](C)NC(=O)[C@@H]2C[C@@H](O)CN2C(=O)[C@@H](NC(=O)CCCNC(=O)c2ccc(N3CCN(CC4(C)CCC(c5ccc(Cl)cc5)=C(CN5CCN(c6ccc(C(=O)NS(=O)(=O)c7ccc(N[C@H](CCN8CCOCC8)CSc8ccccc8)c(S(=O)(=O)C(F)(F)F)c7)cc6)CC5)C4)CC3)cn2)C(C)(C)C)cc1` (stereo partly drawn) [Compound 4], for which the IC50 in assay [1] (setting [3]) and in assay [2] (setting [4]) was 20 to 100 nM each time.

With `Cc1ncsc1-c1ccc([C@H](C)NC(=O)[C@@H]2C[C@@H](O)CN2C(=O)[C@@H](NC(=O)CC(=O)N2CCN(CC3CCN(CC4(C)CCC(c5ccc(Cl)cc5)=C(CN5CCN(c6ccc(C(=O)NS(=O)(=O)c7ccc(N[C@H](CCN8CCOCC8)CSc8ccccc8)c(S(=O)(=O)C(F)(F)F)c7)cc6)CC5)C4)CC3)CC2)C(C)(C)C)cc1` (stereo partly drawn) [Compound 17], the IC50 in assay [1] (setting [3]) fell in the range of 100 to 500 nM; in assay [2] (setting [4]), 20 to 100 nM.

In the case of `Cc1ncsc1-c1ccc([C@H](C)NC(=O)[C@@H]2C[C@@H](O)CN2C(=O)[C@@H](NC(=O)CCCCCCC(=O)N2CCN(C[C@]3(C)CCC(c4ccc(Cl)cc4)=C(CN4CCN(c5ccc(C(=O)NS(=O)(=O)c6ccc(N[C@H](CCN7CCCCC7)CSc7ccccc7)c([N+](=O)[O-])c6)cc5)CC4)C3)CC2)C(C)(C)C)cc1` [Compound 40, (2S,4R)-1-((S)-2-(8-(4-(((R)-4′-chloro-4-methyl-6-((4-(4-(((3-nitro-4-(((R)-1-(phenylthio)-4-(piperidin-1-yl)butan-2-yl)amino)phenyl)sulfonyl)carbamoyl)phenyl)piperazin-1-yl)methyl)-2,3,4,5-tetrahydro-[1,1′-biphenyl]-4-yl)methyl)piperazin-1-yl)-8-oxooctanamido)-3,3-dimethylbutanoyl)-4-hydroxy-N—((S)-1-(4-(4-methylthiazol-5-yl)phenyl)ethyl)pyrrolidine-2-carboxamide], the IC50 in assay [1] (setting [3]) and in assay [2] (setting [4]) was less than 20 nM each time.

As to `CCN(CCO)CC[C@H](CSc1ccccc1)Nc1ccc(S(=O)(=O)NC(=O)c2ccc(N3CCN(CC4=C(c5ccc(Cl)cc5)CCC(C)(CN5CCN(C(=O)CCCCCCC(=O)N[C@H](C(=O)N6C[C@H](O)C[C@H]6C(=O)N[C@@H](C)c6ccc(-c7scnc7C)cc6)C(C)(C)C)CC5)C4)CC3)cc2)cc1[N+](=O)[O-]` (stereo partly drawn) [Compound 43, (2S,4R)-1-((2S)-2-(8-(4-((4′-chloro-6-((4-(4-(((4-(((R)-4-(ethyl(2-hydroxyethyl)amino)-1-(phenylthio)butan-2-yl)amino)-3-nitrophenyl)sulfonyl)carbamoyl)phenyl)piperazin-1-yl)methyl)-4-methyl-2,3,4,5-tetrahydro-[1,1′-biphenyl]-4-yl)methyl)piperazin-1-yl)-8-oxooctanamido)-3,3-dimethylbutanoyl)-4-hydroxy-N—((S)-1-(4-(4-methylthiazol-5-yl)phenyl)ethyl)pyrrolidine-2-carboxamide], the IC50 was 20 to 100 nM in assay [1] (setting [3]); 78.5 nM in assay [1] (Table 5, 48 h, read-out: MOLT-4 48 h IC50); less than 20 nM in assay [2] (setting [4]); 7.3 nM in assay [2] (Table 5, 48 h, read-out: RS4 48 h IC50).

On to `Cc1ncsc1-c1ccc([C@H](C)NC(=O)[C@@H]2C[C@@H](O)CN2C(=O)[C@@H](NC(=O)CCCCCCC(=O)N2CCN(CC3(C)CCC(c4ccc(Cl)cc4)=C(CN4CCN(c5ccc(C(=O)NS(=O)(=O)c6ccc(N[C@H](CCN(C)C)CSc7ccccc7)c(S(=O)(=O)C(F)(F)F)c6)cc5)CC4)C3)CC2)C(C)(C)C)cc1` (stereo partly drawn) [Compound 61], for which the IC50 in assay [1] (setting [3]) and in assay [2] (setting [4]) was less than 20 nM throughout.

Take `Cc1ncsc1-c1ccc([C@H](C)NC(=O)[C@@H]2C[C@@H](O)CN2C(=O)[C@@H](NC(=O)CCCCCCC(=O)N2CCC(C3CCN(CC4(C)CCC(c5ccc(Cl)cc5)=C(CN5CCN(c6ccc(C(=O)NS(=O)(=O)c7ccc(N[C@H](CCN8C[C@H]9C[C@@H]8CO9)CSc8ccccc8)c(S(=O)(=O)C(F)(F)F)c7)cc6)CC5)C4)CC3)CC2)C(C)(C)C)cc1` (stereo partly drawn) [Compound 70]: the IC50 in assay [1] (setting [3]) and in assay [2] (setting [4]) was less than 20 nM in each case.

Consider `Cc1ncsc1-c1ccc([C@H](C)NC(=O)[C@@H]2C[C@@H](O)CN2C(=O)[C@@H](NC(=O)CCCCCCCC(=O)N2CCN(CCC3(C)CCC(c4ccc(Cl)cc4)=C(CN4CCN(c5ccc(C(=O)NS(=O)(=O)c6ccc(N[C@H](CCN7CCOCC7)CSc7ccccc7)c(S(=O)(=O)C(F)(F)F)c6)cc5)CC4)C3)CC2)C(C)(C)C)cc1` (stereo partly drawn) [Compound 29, (2S,4R)-1-((2S)-2-(9-(4-(2-(4′-chloro-4-methyl-6-((4-(4-(((4-(((R)-4-morpholino-1-(phenylthio)butan-2-yl)amino)-3-((trifluoromethyl)sulfonyl)phenyl)sulfonyl)carbamoyl)phenyl)piperazin-1-yl)methyl)-2,3,4,5-tetrahydro-[1,1′-biphenyl]-4-yl)ethyl)piperazin-1-yl)-9-oxononanamido)-3,3-dimethylbutanoyl)-4-hydroxy-N—((S)-1-(4-(4-methylthiazol-5-yl)phenyl)ethyl)pyrrolidine-2-carboxamide], for which the IC50 lay within 100 to 500 nM in assay [1] (setting [3]) and 20 to 100 nM in assay [2] (setting [4]).

Turning to `Cc1ncsc1-c1ccc([C@H](C)NC(=O)[C@@H]2C[C@@H](O)CN2C(=O)[C@@H](NC(=O)CN2CCN(CC(=O)N3CCN(CC4(C)CCC(c5ccc(Cl)cc5)=C(CN5CCN(c6ccc(C(=O)NS(=O)(=O)c7ccc(N[C@H](CCN8CCOCC8)CSc8ccccc8)c(S(=O)(=O)C(F)(F)F)c7)cc6)CC5)C4)CC3)CC2)C(C)(C)C)cc1` (stereo partly drawn) [Compound 25], the half-inhibitory concentration (IC50) in assay [1] (setting [3]) and in assay [2] (setting [4]) was less than 20 nM each time.

As to `CCN(CCO)CC[C@H](CSc1ccccc1)Nc1ccc(S(=O)(=O)NC(=O)c2ccc(N3CCN(CC4=C(c5ccc(Cl)cc5)CCC(C)(CN5CCN(C(=O)CCCCCCC(=O)N[C@H](C(=O)N6C[C@H](O)C[C@H]6C(=O)N[C@@H](C)c6ccc(-c7scnc7C)cc6)C(C)(C)C)CC5)C4)CC3)cc2)cc1S(=O)(=O)C(F)(F)F` (stereo partly drawn) [Compound 63, (2S,4R)-1-((2S)-2-(8-(4-((4′-chloro-6-((4-(4-(((4-(((R)-4-(ethyl(2-hydroxyethyl)amino)-1-(phenylthio)butan-2-yl)amino)-3-((trifluoromethyl)sulfonyl)phenyl)sulfonyl)carbamoyl)phenyl)piperazin-1-yl)methyl)-4-methyl-2,3,4,5-tetrahydro-[1,1′-biphenyl]-4-yl)methyl)piperazin-1-yl)-8-oxooctanamido)-3,3-dimethylbutanoyl)-4-hydroxy-N—((S)-1-(4-(4-methylthiazol-5-yl)phenyl)ethyl)pyrrolidine-2-carboxamide], the IC50 was 20 to 100 nM in assay [1] (setting [3]) and less than 20 nM in assay [2] (setting [4]).

With `Cc1ncsc1-c1ccc([C@H](C)NC(=O)[C@@H]2C[C@@H](O)CN2C(=O)[C@@H](NC(=O)CCCCCCC(=O)N2CCN(C[C@]3(C)CCC(c4ccc(Cl)cc4)=C(CN4CCN(c5ccc(C(=O)NS(=O)(=O)c6ccc(N[C@H](CCN7CCCOCC7)CSc7ccccc7)c(S(=O)(=O)C(F)(F)F)c6)cc5)CC4)C3)CC2)C(C)(C)C)cc1` [Compound 59, (2S,4R)-1-((S)-2-(8-(4-(((R)-6-((4-(4-(((4-(((R)-4-(1,4-oxazepan-4-yl)-1-(phenylthio)butan-2-yl)amino)-3-((trifluoromethyl)sulfonyl)phenyl)sulfonyl)carbamoyl)phenyl)piperazin-1-yl)methyl)-4′-chloro-4-methyl-2,3,4,5-tetrahydro-[1,1′-biphenyl]-4-yl)methyl)piperazin-1-yl)-8-oxooctanamido)-3,3-dimethylbutanoyl)-4-hydroxy-N—((S)-1-(4-(4-methylthiazol-5-yl)phenyl)ethyl)pyrrolidine-2-carboxamide], the IC50 is less than 20 nM in assay [1] (setting [3]); 0.7 nM in assay [1] (Table 4, 48 h, read-out: MOLT-4 48 h IC50); less than 20 nM in assay [2] (setting [4]); 1.6 nM in assay [2] (Table 4, 48 h, read-out: RS4 48 h IC50).

Take `Cc1ncsc1-c1ccc([C@H](C)NC(=O)[C@@H]2C[C@@H](O)CN2C(=O)[C@@H](NC(=O)CCS(=O)(=O)N2CCN(C[C@]3(C)CCC(c4ccc(Cl)cc4)=C(CN4CCN(c5ccc(C(=O)NS(=O)(=O)c6ccc(N[C@H](CCN7CCCOCC7)CSc7ccccc7)c(S(=O)(=O)C(F)(F)F)c6)cc5)CC4)C3)CC2)C(C)(C)C)cc1` [Compound 109]: the IC50 in assay [1] (setting [5]) fell in the range of 100 to 500 nM; in assay [2] (setting [6]), 20 to 100 nM.

Regarding `Cc1ncsc1-c1ccc([C@H](C)NC(=O)[C@@H]2C[C@@H](O)CN2C(=O)[C@@H](NC(=O)CN(C)CCC(=O)N2CCC(C3CCN(C[C@]4(C)CCC(c5ccc(Cl)cc5)=C(CN5CCN(c6ccc(C(=O)NS(=O)(=O)c7ccc(N[C@H](CCN8CCCOCC8)CSc8ccccc8)c(S(=O)(=O)C(F)(F)F)c7)cc6)CC5)C4)CC3)CC2)C(C)(C)C)cc1` [Compound 117], the IC50 in assay [1] (setting [5]) is 20 to 100 nM; in assay [2] (setting [6]), less than 20 nM.

The record behind these values is patent publication US20250154141A1 (University of Florida Research Foundation, Incorporated, priority 2021, published 2025).
